Read-outs that look alike come from different tables or passages of the source.
How the values were obtained:
bacterial inoculum [1] = conditions: for neutralizing 10 ppm of glutaraldehyde: two moles of nitrogen-containing compound to glutaraldehyde
Method: A series of different nitrogen-containing compounds were evaluated as materials to neutralize glutaraldehyde. For these experiments, 10:1 ratio of minimal media to n-C16 were prepared, mixed with 10 ppm of glutaraldehyde (G) and evaluated in 250 ml flasks.
Two moles of each of the nitrogen-containing compound to glutaraldehyde were added to the flasks. Then 10 μl of the bacterial inoculum was added to each flask.
Control samples were also run with the nitrogen-containing compound and without the glutaraldehyde. These control samples permitted an assessment of the toxicity of the nitrogen-containing compound.

bacterial inoculum [2] = assay: Neutralization of biocides with MEA, microbial growth in minimal media / Fischer-Tropsch diesel fuel; type: cell-based
Method: Growth Media: A standard minimal media containing only inorganic nutrients required for bacterial growth was used. The medium used to supply inorganic micronutrients to the growing culture of alkane degrading organisms consists of 0.1 g/L MgSO4.7H2O, 0.5 g/L NaNO3, 0.02 mM FeSO4 and 0.63 g/L K2HPO4 and 0.19 g/L KH2PO4 to achieve a pH of 7 to 7.3.
Test Conditions: 90 ml of media and 10 ml of the product to be tested (n-C16) were added to 250 ml flasks. […] After inoculation, the flasks were placed on a shaker-table (135 rpm) at room temperature in contact with air and observed daily.
In all experiments, a 10:1 ratio of minimal media to Fischer-Tropsch diesel fuel were prepared and evaluated in 250 ml flasks.

[3] = tested on: Larval Sheepshead Minnow (Cyprinodon variegatus); conditions: in vivo, 96 h
Method: […]. EPA/600/4-90/027F Washington, D.C.) conducted at Pacific Eco-Risk Laboratories, Martinez, Calif.
LOEC is the Lowest Observable Effect Concentration and is defined as the minimum concentration where mortality is observed for the test species. […] LC-50, the concentration that will cause mortality of 50% of the organisms tested within 96 h, is a calculated value based on all observations.

bacteria = assay: Neutralization of glutaraldehyde with H2O2 and NH4Cl, microbial growth test; type: cell-based
Method: […]. In this experiment, minimal medium, containing 1, 10 or 100 ppm of glutaraldehyde, were mixed with a five times molar excess of H2O2 or NH4Cl. Hydrocarbonaceous product and bacteria were then added to the mixture. While microbial growth was observed after 5 days in control samples containing no glutaraldehyde, no growth was observed after 14 days in samples containing glutaraldehyde and H2O2 or NH4Cl. […].

[4] = 10 ppm glutaraldehyde with two moles of the nitrogen-containing compound to glutaraldehyde, time 0 days
[5] = 10 ppm glutaraldehyde with two moles of the nitrogen-containing compound to glutaraldehyde, time 1 days
[6] = 10 ppm glutaraldehyde with two moles of the nitrogen-containing compound to glutaraldehyde, time 2 days
[7] = 10 ppm glutaraldehyde with two moles of the nitrogen-containing compound to glutaraldehyde, time 6 days
[8] = 10 ppm glutaraldehyde with two moles of the nitrogen-containing compound to glutaraldehyde, time 7 days
[9] = 10 ppm glutaraldehyde with two moles of the nitrogen-containing compound to glutaraldehyde, time 9 days
[10] = 10 ppm glutaraldehyde with two moles of the nitrogen-containing compound to glutaraldehyde, time 13 days
[11] = 10 ppm glutaraldehyde with two moles of the nitrogen-containing compound to glutaraldehyde, time 20 days
[12] = control: nitrogen-containing compound without the glutaraldehyde, time 0 days
[13] = control: nitrogen-containing compound without the glutaraldehyde, time 1 days
[14] = control: nitrogen-containing compound without the glutaraldehyde, time 2 days
[15] = control: nitrogen-containing compound without the glutaraldehyde, time 6 days
[16] = control: nitrogen-containing compound without the glutaraldehyde, time 7 days
[17] = control: nitrogen-containing compound without the glutaraldehyde, time 9 days
[18] = control: nitrogen-containing compound without the glutaraldehyde, time 13 days
[19] = control: nitrogen-containing compound without the glutaraldehyde, time 20 days

OCCNCCO [DEA, Diethanolamine]
toxicity of the nitrogen-containing compound to microbial growth (bacterial inoculum [1]): not excessively toxic
Growth / No Growth (bacterial inoculum [1]; [4]): −
Growth / No Growth (bacterial inoculum [1]; [5]): +
Growth / No Growth (bacterial inoculum [1]; [6]): +
Growth / No Growth (bacterial inoculum [1]; [7]): +
Growth / No Growth (bacterial inoculum [1]; [8]): +
Growth / No Growth (bacterial inoculum [1]; [9]): +
Growth / No Growth (bacterial inoculum [1]; [10]): +
Growth / No Growth (bacterial inoculum [1]; [11]): +
Growth / No Growth (bacterial inoculum [1]; [12]): −
Growth / No Growth (bacterial inoculum [1]; [13]): −
Growth / No Growth (bacterial inoculum [1]; [14]): −
Growth / No Growth (bacterial inoculum [1]; [15]): +
Growth / No Growth (bacterial inoculum [1]; [16]): +
Growth / No Growth (bacterial inoculum [1]; [17]): +
Growth / No Growth (bacterial inoculum [1]; [18]): +
Growth / No Growth (bacterial inoculum [1]; [19]): −
neutralizing 10 ppm of glutaraldehyde (bacterial inoculum [1]): effective

O=CCCCC=O [Glutaraldehyde, glutaraldehyde]
Growth / No Growth (bacterial inoculum [2]; 1 ppm G, time 0 days): −
Growth / No Growth (bacterial inoculum [2]; 1 ppm G, time 1 days): −
Growth / No Growth (bacterial inoculum [2]; 1 ppm G, time 2 days): −
Growth / No Growth (bacterial inoculum [2]; 1 ppm G, time 3 days): −
Growth / No Growth (bacterial inoculum [2]; 1 ppm G, time 7 days): −
Growth / No Growth (bacterial inoculum [2]; 1 ppm G, time 9 days): +
Growth / No Growth (bacterial inoculum [2]; 1 ppm G, time 14 days): +
Growth / No Growth (bacterial inoculum [2]; 10 ppm G, time 0 days): −
Growth / No Growth (bacterial inoculum [2]; 10 ppm G, time 1 days): −
Growth / No Growth (bacterial inoculum [2]; 10 ppm G, time 2 days): −
Growth / No Growth (bacterial inoculum [2]; 10 ppm G, time 3 days): −
Growth / No Growth (bacterial inoculum [2]; 10 ppm G, time 7 days): −
Growth / No Growth (bacterial inoculum [2]; 10 ppm G, time 9 days): −
Growth / No Growth (bacterial inoculum [2]; 10 ppm G, time 14 days): −
Growth / No Growth (bacterial inoculum [2]; 100 ppm G, time 0 days): −
Growth / No Growth (bacterial inoculum [2]; 100 ppm G, time 1 days): −
Growth / No Growth (bacterial inoculum [2]; 100 ppm G, time 2 days): −
Growth / No Growth (bacterial inoculum [2]; 100 ppm G, time 3 days): −
Growth / No Growth (bacterial inoculum [2]; 100 ppm G, time 7 days): −
Growth / No Growth (bacterial inoculum [2]; 100 ppm G, time 9 days): −
Growth / No Growth (bacterial inoculum [2]; 100 ppm G, time 14 days): −
LOEC [3]: 25 mg/L
NOEC [3]: 13 mg/L

OO [H2O2]
microbial growth (bacteria): no growth

NCCO [MEA, monoethanolamine]
toxicity of the nitrogen-containing compound to microbial growth (bacterial inoculum [1]): not excessively toxic
Growth / No Growth (bacterial inoculum [1]; [4]): −
Growth / No Growth (bacterial inoculum [1]; [5]): −
Growth / No Growth (bacterial inoculum [1]; [6]): −
Growth / No Growth (bacterial inoculum [1]; [7]): +
Growth / No Growth (bacterial inoculum [1]; [8]): +
Growth / No Growth (bacterial inoculum [1]; [9]): +
Growth / No Growth (bacterial inoculum [1]; [10]): +
Growth / No Growth (bacterial inoculum [1]; [11]): +
Growth / No Growth (bacterial inoculum [1]; [12]): −
Growth / No Growth (bacterial inoculum [1]; [13]): −
Growth / No Growth (bacterial inoculum [1]; [14]): −
Growth / No Growth (bacterial inoculum [1]; [15]): −
Growth / No Growth (bacterial inoculum [1]; [16]): +
Growth / No Growth (bacterial inoculum [1]; [17]): +
Growth / No Growth (bacterial inoculum [1]; [18]): +
Growth / No Growth (bacterial inoculum [1]; [19]): +
neutralizing 10 ppm of glutaraldehyde (bacterial inoculum [1]): effective
LOEC [3]: 1700 mg/L
NOEC [3]: 1000 mg/L

Cl.N [NH4Cl]
microbial growth (bacteria): no growth

Nc1ccccc1 [aniline, Aniline]
toxicity of the nitrogen-containing compound to microbial growth (bacterial inoculum [1]): excessively toxic
Growth / No Growth (bacterial inoculum [1]; [4]): −
Growth / No Growth (bacterial inoculum [1]; [5]): −
Growth / No Growth (bacterial inoculum [1]; [6]): −
Growth / No Growth (bacterial inoculum [1]; [7]): −
Growth / No Growth (bacterial inoculum [1]; [8]): −
Growth / No Growth (bacterial inoculum [1]; [9]): −
Growth / No Growth (bacterial inoculum [1]; [10]): −
Growth / No Growth (bacterial inoculum [1]; [11]): −
Growth / No Growth (bacterial inoculum [1]; [12]): −
Growth / No Growth (bacterial inoculum [1]; [13]): −
Growth / No Growth (bacterial inoculum [1]; [14]): −
Growth / No Growth (bacterial inoculum [1]; [15]): −
Growth / No Growth (bacterial inoculum [1]; [16]): −
Growth / No Growth (bacterial inoculum [1]; [17]): −
Growth / No Growth (bacterial inoculum [1]; [18]): −
Growth / No Growth (bacterial inoculum [1]; [19]): −

CCNCC [diethylamine, Diethylamine]
toxicity of the nitrogen-containing compound to microbial growth (bacterial inoculum [1]): not excessively toxic
Growth / No Growth (bacterial inoculum [1]; [4]): −
Growth / No Growth (bacterial inoculum [1]; [5]): −
Growth / No Growth (bacterial inoculum [1]; [6]): −
Growth / No Growth (bacterial inoculum [1]; [7]): +
Growth / No Growth (bacterial inoculum [1]; [8]): +
Growth / No Growth (bacterial inoculum [1]; [9]): +
Growth / No Growth (bacterial inoculum [1]; [10]): +
Growth / No Growth (bacterial inoculum [1]; [11]): +
Growth / No Growth (bacterial inoculum [1]; [12]): −
Growth / No Growth (bacterial inoculum [1]; [13]): −
Growth / No Growth (bacterial inoculum [1]; [14]): −
Growth / No Growth (bacterial inoculum [1]; [15]): +
Growth / No Growth (bacterial inoculum [1]; [16]): +
Growth / No Growth (bacterial inoculum [1]; [17]): +
Growth / No Growth (bacterial inoculum [1]; [18]): +
Growth / No Growth (bacterial inoculum [1]; [19]): +
neutralizing 10 ppm of glutaraldehyde (bacterial inoculum [1]): effective
